Experimental data published in US9499534B2, “Thiazole-substituted aminopyrimidines as spleen tyrosine kinase inhibitors” (priority 2013, dated 2016).

Target: recombinant human GST-SYK (Homo sapiens (Human), UniProt P43405)
Experiment: Homogeneous Time-Resolved Fluorescence (HTRF) Assay for the Recombinant Human Syk Enzyme
Format: biochemical
Conditions: GST-SYK 5 pM, ATP 25 μM, biotinylated substrate peptide 250 nM, HTRF signal
Method: Homogeneous Time-Resolved Fluorescence (HTRF) Assay for the Recombinant Human Syk Enzyme
A recombinant GST-hSYK fusion protein was used to measure potency of compounds to inhibit human Syk activity. The recombinant human GST-SYK (Carna Biosciences #08-176) (5 pM final concentration) was incubated with various concentrations of the inhibitor diluted in DMSO (0.1% final concentration) for 10 minutes at room temperature in 15 mM Tris-HCl (pH 7.5), 0.01% tween 20, 2 mM DTT in 384 well plate format. To initiate the reaction the biotinylated substrate peptide (250 nM final concentration) that contains the phosphorylation site for Syk was added with magnesium (5 mM final concentration) and ATP (25 μM final concentration). Final volume of the reaction was 10 μL. Phosphorylation of the peptide was allowed to proceed for 45′ at room temperature. To quench the reaction and detect the phosphorylated product, 2 nM of a Europium-anti-phosphotyrosine antibody (Perkin Elmer #AD0161) and 70 nM SA-APC (Perkin-Elmer #CR130-100) were added together in 15 mM Tris pH 7.5, 40 mM EDTA, 0.01% tween 20. Final volume of the quenching solution was 10 μL.
The resulting HTRF signal was measured after 30 minutes on an EnVision (Perkin-Elmer) reader using a time-resolved fluorescence protocol. Table A below lists activities as IC50 values (nM) for representative compounds of the invention.

Row | Compound | IC50
1 | C[S+]([O-])c1ccccc1-c1cc(Nc2nccc(C(F)(F)F)n2)cc(-c2cnc([C@]3(O)CC[C@@H](C(=O)O)C(C)(C)C3)s2)c1 (single isomer, unassigned) [Example 2.17, (1R,4S or 1S,4R)-4-hydroxy-2,2-dimethyl-4-{5-[2′-(methylsulfinyl)-5-{[4-(trifluoromethyl)pyrimidin-2-yl]amino}biphenyl-3-yl]-1,3-thiazol-2-yl}cyclohexanecarboxylic acid] | 15.3 nM
2 | CC1(C)C[C@](O)(c2ncc(-c3cc(Nc4nccc(C(F)(F)F)n4)cc(-c4ccc(N)nc4)c3)s2)CC[C@H]1C(=O)O (single isomer, unassigned) [Example 2.19, (1R,4S or 1S,4R)-4-{5-[3-(6-aminopyridin-3-yl)-5-{[4-(trifluoromethyl)pyrimidin-2-yl]amino}phenyl]-1,3-thiazol-2-yl}-4-hydroxy-2,2-dimethylcyclohexanecarboxylic acid] | 1.29 nM
3 | COc1cc(Nc2nccc(C(F)(F)F)n2)cc(-c2cnc([C@@]3(O)CC[C@H](C(=O)O)C(C)(C)C3)s2)c1 (single isomer, unassigned) [Example 1.5, (1R,4S or 1S,4R) 4-Hydroxy-4-(5-(3-methoxy-5-((4-(trifluoromethyl)pyrimidin-2-yl)amino)phenyl)thiazol-2-yl)-2,2-dimethylcyclohexanecarboxylic acid] | 1.4 nM
4 | C[C@@H]1C[C@@](O)(c2ncc(-c3cc(Nc4nccc(C(F)(F)F)n4)cc(-c4cn[nH]c4)c3)s2)CC[C@@H]1C(N)=O (racemic) [Example 1.3, rel-(1S,2R,4R or S)-4-(5-(3-(1H-pyrazol-4-yl)-5-((4-(trifluoromethyl)pyrimidin-2-yl)amino)phenyl)thiazol-2-yl)-4-hydroxy-2-methylcyclohexanecarboxamide] | 2.95 nM
5 | COc1cc(Nc2nccc(C(F)(F)F)n2)cc(-c2cnc([C@]3(O)CC[C@@H](C(=O)O)CC3)s2)c1 [Example 1.6, cis-4-Hydroxy-4-(5-(3-methoxy-5-((4-(trifluoromethyl)pyrimidine-2-yl)amino)phenyl)thiazol-2-yl)cyclohexanecarboxylic acid] | 1.29 nM
6 | CC1(C)C[C@](O)(c2ncc(-c3cc(Nc4nccc(C(F)(F)F)n4)cc(-c4ccccc4Cl)c3)s2)CC[C@H]1C(=O)O (single isomer, unassigned) [Example 2.18, (1R,4S or 1S,4R)-4-[5-(2′-chloro-5-{[4-(trifluoromethyl)pyrimidin-2-yl]amino}biphenyl-3-yl)-1,3-thiazol-2-yl]-4-hydroxy-2,2-dimethylcyclohexanecarboxylic acid] | 37.1 nM
7 | CC1(C)C[C@](O)(c2ncc(-c3cc(Nc4nccc(C(F)(F)F)n4)cc(-c4cn[nH]c4)c3)s2)CC[C@H]1C(=O)O (single isomer, unassigned) [Example 2.10, (1R,4S or 1S,4R)-4-hydroxy-2,2-dimethyl-4-{5-[3-(1H-pyrazol-4-yl)-5-{[4-(trifluoromethyl)pyrimidin-2-yl]amino}phenyl]-1,3-thiazol-2-yl}cyclohexanecarboxylic acid] | 2.38 nM
8 | CC1(C)C[C@](O)(c2ncc(-c3cc(Nc4nccc(C(F)(F)F)n4)cc(-c4cccs4)c3)s2)CC[C@H]1C(=O)O (single isomer, unassigned) [Example 3.2, (1R,4S or 1S,4R)-4-hydroxy-2,2-dimethyl-4-[5-(3-thiophen-2-yl-5-{[4-(trifluoromethyl)pyrimidin-2-yl]amino}phenyl)-1,3-thiazol-2-yl]cyclohexanecarboxylic acid] | 12.4 nM
9 | CC(C)n1cc(-c2cc(Nc3nccc(C(F)(F)F)n3)cc(-c3cnc([C@]4(O)CC[C@@H](C(=O)O)C(C)(C)C4)s3)c2)cn1 (single isomer, unassigned) [Example 2.3, (1R,4S or 1S,4R)-4-hydroxy-2,2-dimethyl-4-[5-(3-[1-(1-methylethyl)-1H-pyrazol-4-yl]-5-{[4-(trifluoromethyl)pyrimidin-2-yl]amino}phenyl)-1,3-thiazol-2-yl]cyclohexanecarboxylic acid] | 149 nM
